From patent US6352982B1, “4,1-benzoxazepines, their analogues, and their use as somatostatin agonists” (Takeda Chemical Industries, Ltd., priority 1997, dated 2002) come the findings set out here.

Where a name gives a salt, the structure may show the parent alone.

Common to all, as to format: cell-based
The target of assay [1] is T1, human somatostatin receptor SSTR2 (Homo sapiens, UniProt P30874).
T1 construct: expressed in transfected cells; host or cells: CHO (dhfr-) cells, strain SSTR2-HS5-9
T1 sequence (P30874 whole entry): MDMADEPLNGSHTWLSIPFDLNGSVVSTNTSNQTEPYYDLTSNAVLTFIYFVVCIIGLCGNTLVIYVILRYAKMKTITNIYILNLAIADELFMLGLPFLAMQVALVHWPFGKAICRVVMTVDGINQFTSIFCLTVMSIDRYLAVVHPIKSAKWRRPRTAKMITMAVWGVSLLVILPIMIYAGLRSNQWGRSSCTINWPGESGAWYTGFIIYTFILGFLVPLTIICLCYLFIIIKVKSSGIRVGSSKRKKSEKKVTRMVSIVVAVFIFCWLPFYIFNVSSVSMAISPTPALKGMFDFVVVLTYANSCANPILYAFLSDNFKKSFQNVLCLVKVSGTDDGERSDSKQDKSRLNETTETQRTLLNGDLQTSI
The experiment in a line: Inhibition of forskolin-stimulated accumulation of cAMP in receptor expression CHO cells. The note with it: forskolin 10 μM, 37° C. for 30 minutes, read-out: Inhibitory effect on forskolin-stimulated accumulation of cAMP (ED50 value) SSTR2. The procedure: (§1) For measurement of the accumulated intracellular adenosine 3′,5′-monophosphate (cAMP), the human somatostatin receptor expression cell strains, SSTR2-HS5-9, SSTR-3-15-19, SSTR4-1-2 and SSTR5-32-4, mentioned in Reference Examples 2-3, 3-3,4-3 and 5-3, respectively, were proliferated in 24-well plate until they were confluent. Said cells were washed twice with 1 ml of Medium A [Dulbecco's Modified Eagle Medium (DMEM), 20 mM 2-(4-(2-hydroxyethyl)-1-piperazinyl]ethanesulfonic acid (HEPES) (pH 7.5), 0.2% bovine serum albumin and 0.2 mM 3-isobutyl-1-methylxanthine (IBMX)]. The medium A was placed in wells each in quantity of 400 μl and incubated at 37° C. for an hour. A solution of the compounds of Example 5 and Example 102 (solution obtained by diluting with Medium A to the 10-fold concentration of the final concentration) and a forskolin solution (final concentration 10 μM) were placed in wells each in quantities of 50 μl and 50 μl, respectively, and incubated at 37° C. for 30 minutes. The cells were washed twice with 1 ml of Medium A. Medium A (500 μl) and 100 μl of a 20% aqueous perchloric acid solution were placed in each well and left standing for 20 minutes at 4° C. to lyse the cells. The lyzate was placed in an Eppendorf's tube and centrifuged (15.000 rpm, for 10 minutes). The supernatant was placed in another Eppendorf's tube in quantity of 500 μl and neutralized with 60 mM of a HEPES aqueous solution containing 1.5 M of potassium chloride. The content of cAMP contained in this extract was determined by the Amersham kit (cAMP EIA system).

Assay [2] concerns the target T2, human somatostatin receptor SSTR3 (Homo sapiens, UniProt P32745).
T2 construct: expressed in transfected cells; host or cells: CHO (dhfr-) cells, strain SSTR3-15-19
The assay is described as above. The note with it: forskolin 10 μM, 37° C. for 30 minutes, read-out: Inhibitory effect on forskolin-stimulated accumulation of cAMP (ED50 value) SSTR3. The method, then: as §1

Assay [3] has as its target T3, human somatostatin receptor SSTR4 (Homo sapiens, UniProt P31391).
T3 construct: expressed in transfected cells; host or cells: CHO (dhfr-) cells, strain SSTR4-1-2
The assay is described as above. The conditions noted are these: forskolin 10 μM, 37° C. for 30 minutes, read-out: Inhibitory effect on forskolin-stimulated accumulation of cAMP (ED50 value) SSTR4. The method, then:
as §1

Assay [4] deals with T4, human somatostatin receptor SSTR5 (Homo sapiens, UniProt P35346).
T4 construct: expressed in transfected cells; host or cells: CHO (dhfr-) cells, strain SSTR5-3-2-4 (also printed SSTR5-32-4)
T4 sequence (P35346 whole entry): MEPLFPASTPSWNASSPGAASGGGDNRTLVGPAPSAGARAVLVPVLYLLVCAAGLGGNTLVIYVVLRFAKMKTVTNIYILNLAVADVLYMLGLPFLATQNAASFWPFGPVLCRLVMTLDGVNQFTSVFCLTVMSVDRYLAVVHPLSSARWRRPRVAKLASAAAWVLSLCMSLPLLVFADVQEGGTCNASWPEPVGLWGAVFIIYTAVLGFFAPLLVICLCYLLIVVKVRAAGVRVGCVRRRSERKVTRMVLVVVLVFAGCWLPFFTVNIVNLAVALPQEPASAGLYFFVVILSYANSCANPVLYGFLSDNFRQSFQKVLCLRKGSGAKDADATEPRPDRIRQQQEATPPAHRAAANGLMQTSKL
The description is as above. The note with it: forskolin 10 μM, 37° C. for 30 minutes, read-out: Inhibitory effect on forskolin-stimulated accumulation of cAMP (ED50 value) SSTR5. The method, then:
as §1

Assay [5] deals with primary cell culture of the rat anterior pituitary. The experiment in a line: Inhibition of growth hormone (GH) secretion from primary cell culture. The note with it: GHRH-stimulated, 37° C. for 3 hours; for EC50: Rattus norvegicus, GH by RIA, read-out: ED50 values, inhibition of GH secretion. The procedure:
The anterior pituitaries were excised from the decapitated skull of 40 unanesthetized male rats of 8 weeks of age. The anterior pituitaries were placed in a laboratory dish containing the buffer A (consisting of 137 mM of sodium chloride, 5 mM of potassium chloride, 0.7 mM of disodium hydrogen phosphate, 25 mM of 2-[4-(2-hydroxyethyl)-1-piperazinyl]ethane sulfonic acid (HEPES) (pH 7.3), and 50 μg/ml of gentamicin sulfate] and washed once with the buffer A. Each anterior pituitary was cut into 4 pieces by scissors and washed twice again. The pieces of the anterior pituitaries were incubated in 30 ml of Enzyme Solution I [buffer A solution containing 0.4% of collagenase (Boehringer Mannheim), 0.4% of bovine serum albumin, 10 μg/ml of deoxyribonuclease (Sigma) and 0.2% of glucose] at 37° C. under shaking for 1 hour. After dispersion of the pieces of the anterior pituitaries by a Komagome pipette, the solution was centrifuged (480×g, for 6 minutes). The supernatant was discarded. The sediment was suspended in 30 ml of Enzyme Solution II [buffer A solution containing 0.25% of pancreatin (Sigma)] and incubated at 37° C. under shaking for 8 minutes. After adding 2 ml of fetal calf serum, the cell suspension was centrifuged (480×g, for 6 minutes) again and the supernatant was discarded. The sediment was suspended in 10 ml of Medium I [Dulbecco modified Eagle's Medium (DMEM) containing 10% of fetal calf serum, 20 mM of HEPES (pH 7.3), 50 U/ml of penicillin G and 50 μg/ml of streptomycin] and filtered through nylon mesh. The cells thus obtained were washed twice with 10 ml of Medium I. The number of the cells was counted, and the cells were suspended in Medium I in the cell density of 1.5×10^5 cells/ml. The aliquots of 1 ml each of the cell suspension were placed in the wells of 24-well plate and incubated at 37° C. for 3 days in the carbon dioxide incubator under 5% carbon dioxide-95% air environment. The cells were washed twice with 1 ml of Medium II (Medium I containing 0.2% bovine serum albumin instead of 10% fetal calf serum) and then incubated in 1 ml of Medium II for 1 hour. The supernatant was discarded. To each well of the 24-well plate 0.8 ml each of Medium II was added, and 0.1 ml of Medium II containing somatostatin-14 (SS-14) or the compound of Example 5 or the compound of Example 102 in the concentration of 10 times the final concentration and 0.1 ml of 10 nM growth hormone releasing hormone (GHRH) were added thereto. After incubation at 37° C. for 3 hours, 0.6 ml of the supernatant of the each well was collected to obtain a supernatant solution by the centrifugation on 1,000×g for 8 minutes. GH concentrations in the supernatant were determined by radioimmunoassay (RIA) kit of Amersham.

T3 sequence (P31391 whole entry): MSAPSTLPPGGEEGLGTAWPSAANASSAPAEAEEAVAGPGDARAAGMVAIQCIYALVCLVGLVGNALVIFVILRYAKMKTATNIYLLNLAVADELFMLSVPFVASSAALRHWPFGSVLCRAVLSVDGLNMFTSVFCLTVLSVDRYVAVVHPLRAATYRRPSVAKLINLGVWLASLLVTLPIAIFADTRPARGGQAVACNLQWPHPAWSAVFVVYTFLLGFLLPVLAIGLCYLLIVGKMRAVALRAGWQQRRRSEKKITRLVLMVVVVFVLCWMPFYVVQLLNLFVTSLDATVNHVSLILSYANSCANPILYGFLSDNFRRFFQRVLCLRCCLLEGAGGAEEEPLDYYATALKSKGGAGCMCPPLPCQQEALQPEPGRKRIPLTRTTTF
T2 sequence (P32745 whole entry): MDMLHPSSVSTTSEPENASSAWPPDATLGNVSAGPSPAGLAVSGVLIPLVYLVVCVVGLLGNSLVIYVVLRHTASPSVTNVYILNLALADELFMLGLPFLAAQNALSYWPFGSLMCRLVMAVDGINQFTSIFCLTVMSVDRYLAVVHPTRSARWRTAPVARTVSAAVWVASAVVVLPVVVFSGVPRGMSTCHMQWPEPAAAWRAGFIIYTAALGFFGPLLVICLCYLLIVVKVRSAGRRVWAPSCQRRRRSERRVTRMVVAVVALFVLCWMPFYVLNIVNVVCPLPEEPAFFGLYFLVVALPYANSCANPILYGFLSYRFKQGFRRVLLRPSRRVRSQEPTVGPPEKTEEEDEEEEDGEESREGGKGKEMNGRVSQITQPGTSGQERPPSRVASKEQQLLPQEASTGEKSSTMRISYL

`NCc1cccc(C2OC(CC(=O)NCc3ccccc3F)C(=O)N(Cc3ccc(-c4ccccc4)cc3)c3ccc(Cl)cc32)c1` (stereo not drawn) [Example 5, 3,5-Trans-N-(2-fluorobenzyl)-5-(3-aminomethylphenyl)-1-(4-biphenylmethyl)-7-chloro-2-oxo-1,2,3,5-tetrahydro-4,1-benzoxazepine-3-acetamide•monohydrochloride]: the EC50 in assay [1] is 300 nM; in assay [2] it was 2 nM; in assay [3], 200 nM; in assay [4], 0.7 nM; in assay [5] it was 8 nM. For the same compound, the “GH secretion from the primary cell culture of rat anterior pituitary” value in assay [5] is reported as “inhibited dose-dependently”.
Consider `NCc1cccc(C2OC(CC(=O)NCc3ccccc3F)C(=O)N(Cc3ccc(O)cc3)c3ccc(Cl)cc32)c1` (stereo not drawn) [Example 102, 3,5-Trans-N-(2-fluorobenzyl)-5-(3-aminomethylphenyl)-7-chloro-1-(4-hydroxybenzyl)-2-oxo-1,2,3,5-tetrahydro-4,1-benzoxazepine-3-acetamide•monohydrochloride], for which the EC50 in assay [1] was 200 nM; in assay [2] it was 0.3 nM; in assay [3], 100 nM; in assay [4] it was 0.3 nM; in assay [5], 10 nM. Besides, the “GH secretion from the primary cell culture of rat anterior pituitary” value in assay [5] is “inhibited dose-dependently”.
